Reference: patent publication US12338243B2, “P2X7 modulators” (JANSSEN PHARMACEUTICA NV, priority 2014, dated 2025)

What was measured:
P2X7 = molecular target: T1, P2X7 (Homo sapiens, UniProt Q99572); test: Ca2+ flux (FLIPR) in 1321N1 cells expressing recombinant human P2X7 channel; format: cell-based; design: expressed in transfected cells; host or cells: 1321N1 cells; conditions: 250 μM BzATP
T1 sequence (Q99572 1-595): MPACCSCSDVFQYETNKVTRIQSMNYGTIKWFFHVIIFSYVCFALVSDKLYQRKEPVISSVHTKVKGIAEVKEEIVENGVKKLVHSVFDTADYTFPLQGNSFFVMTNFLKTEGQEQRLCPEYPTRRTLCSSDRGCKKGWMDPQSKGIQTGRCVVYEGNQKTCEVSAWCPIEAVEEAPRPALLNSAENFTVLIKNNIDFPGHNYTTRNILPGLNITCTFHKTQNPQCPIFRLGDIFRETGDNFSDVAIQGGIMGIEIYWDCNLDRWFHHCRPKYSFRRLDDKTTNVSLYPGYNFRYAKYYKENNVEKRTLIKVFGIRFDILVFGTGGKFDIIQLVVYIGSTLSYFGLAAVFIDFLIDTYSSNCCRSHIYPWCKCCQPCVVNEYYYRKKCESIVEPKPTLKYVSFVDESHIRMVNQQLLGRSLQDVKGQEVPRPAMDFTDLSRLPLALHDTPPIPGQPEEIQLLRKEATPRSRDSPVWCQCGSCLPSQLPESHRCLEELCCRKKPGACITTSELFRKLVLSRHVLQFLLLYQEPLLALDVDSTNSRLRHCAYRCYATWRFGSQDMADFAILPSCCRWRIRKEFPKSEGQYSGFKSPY
Protocol: P2X7 Antagonism in Recombinant Human P2X7 Cells or Recombinant Rat P2X7 Cells: (a) Ca^2+ Flux and (b) Radioligand Binding
(a) Ca^2+ flux: 1321N1 cells expressing the recombinant human or rat P2X7 channel was cultured in HyQ DME/(HyClone/Dulbecco's Modified Eagle Medium) high glucose supplemented with 10% Fetal Bovine Serum (FBS) and appropriate selection marker. Cells were seeded at a density of 25000 cells/well (96-well clear bottom black walled plates) in 100 μl volume/well. On the day of the experiment, cell plates were washed with assay buffer, containing (in mM): 130 NaCl, 2 KCl, 1 CaCl2), 1 MgCl2, 10 HEPES, 5 glucose; pH 7.40 and 300 mOs. After the wash, cells were loaded with the Calcium-4 dye (Molecular Device) and incubated in the dark for 60 minutes. Test compounds were prepared at 250× the test concentration in neat DMSO. Intermediate 96-well compound plates were prepared by transferring 1.2 μL of the compound into 300 μL of assay buffer. A further 3× dilution occurred when transferring 50 μL/well of the compound plate to 100 μL/well in the cell plate. Cells were incubated with test compounds and dye for 30 minutes. […] The fluorescence change was measured 180 seconds after adding the agonist.

rat P2X7 = molecular target: T2, rat P2X7 (Rattus norvegicus, UniProt Q64663); test: Ca2+ flux (FLIPR) in 1321N1 cells expressing recombinant rat P2X7 channel; conditions: FLIPR (rat) IC50 (μM), 250 μM BzATP
T2 sequence (Q64663 1-595): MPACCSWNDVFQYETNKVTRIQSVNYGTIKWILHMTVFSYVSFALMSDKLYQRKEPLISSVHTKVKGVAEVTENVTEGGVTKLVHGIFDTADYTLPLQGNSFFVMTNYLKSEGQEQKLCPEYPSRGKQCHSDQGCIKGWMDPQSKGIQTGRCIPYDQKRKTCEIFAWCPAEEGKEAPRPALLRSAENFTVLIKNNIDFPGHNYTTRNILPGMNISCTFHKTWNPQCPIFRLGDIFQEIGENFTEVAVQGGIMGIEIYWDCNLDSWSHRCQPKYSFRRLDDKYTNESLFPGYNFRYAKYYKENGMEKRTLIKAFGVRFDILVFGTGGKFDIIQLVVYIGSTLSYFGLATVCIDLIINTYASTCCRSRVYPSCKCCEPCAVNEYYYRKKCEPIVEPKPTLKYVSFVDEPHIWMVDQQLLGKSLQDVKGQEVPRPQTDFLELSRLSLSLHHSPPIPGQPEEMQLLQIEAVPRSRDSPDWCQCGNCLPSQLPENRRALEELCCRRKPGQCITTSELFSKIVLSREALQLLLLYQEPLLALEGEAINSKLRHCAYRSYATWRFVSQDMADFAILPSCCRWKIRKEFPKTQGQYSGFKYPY

Compound	IC50 (P2X7)	IC50 (rat P2X7)
O=C(c1cccc(C(F)(F)F)c1Cl)N1CCn2c(nnc2C(F)(F)F)C1c1ccn[nH]1 (racemic) [Example 126, (±)-(8-(1H-pyrazol-5-yl)-3-(trifluoromethyl)-5,6-dihydro-[1,2,4]triazolo[4,3-a]pyrazin-7(8H)-yl)(2-chloro-3-(trifluoromethyl)phenyl)methanone]	1.55 µM	> 10 µM
CC1Cn2c(nnc2C(F)(F)F)C(c2ccccc2)N1C(=O)c1cccc(C(F)(F)F)c1Cl (racemic) [Example 130, (±)-(2-chloro-3-(trifluoromethyl)phenyl)(6-methyl-8-phenyl-3-(trifluoromethyl)-5,6-dihydro-[1,2,4]triazolo[4,3-a]pyrazin-7(8H)-yl)methanone]	> 10 µM	> 10 µM
C[C@H]1Cn2c(nnc2-c2ccc(C(F)(F)F)cc2)CN1C(=O)c1cccc(Cl)c1Cl [Example 26, (S)-(2,3-dichlorophenyl)(6-methyl-3-(4-(trifluoromethyl)phenyl)-5,6-dihydro-[1,2,4]triazolo[4,3-a]pyrazin-7(8H)-yl)methanone]	4.13 µM	3.95 µM
C[C@H]1Cn2c(nnc2-c2ccc(C(F)(F)F)cc2)CN1C(=O)c1cccc(C(F)(F)F)c1Cl [Example 27, (S)-(2-chloro-3-(trifluoromethyl)phenyl)(6-methyl-3-(4-(trifluoromethyl)phenyl)-5,6-dihydro-[1,2,4]triazolo[4,3-a]pyrazin-7(8H)-yl)methanone]	1.66 µM	2.96 µM
C[C@H]1Cn2c(nnc2-c2ccc(C(F)(F)F)c(F)c2)CN1C(=O)c1cccc(Cl)c1Cl [Example 28, (S)-(2,3-dichlorophenyl)(3-(3-fluoro-4-(trifluoromethyl)phenyl)-6-methyl-5,6-dihydro-[1,2,4]triazolo[4,3-a]pyrazin-7(8H)-yl)methanone]	7.48 µM	3.78 µM
C[C@H]1Cn2c(nnc2-c2ccc(C(F)(F)F)c(F)c2)CN1C(=O)c1cccc(C(F)(F)F)c1Cl [Example 29, (S)-(2-chloro-3-(trifluoromethyl)phenyl)(3-(3-fluoro-4-(trifluoromethyl)phenyl)-6-methyl-5,6-dihydro-[1,2,4]triazolo[4,3-a]pyrazin-7(8H)-yl)methanone]	3.55 µM	2.97 µM
CC1CN(C(=O)c2cccc(Cl)c2Cl)Cc2nnc(-c3ccccn3)n21 (stereo not drawn) [Example 34, (2,3-dichlorophenyl)(5-methyl-3-(pyridin-2-yl)-5,6-dihydro-[1,2,4]triazolo[4,3-a]pyrazin-7(8H)-yl)methanone]	12.9 µM	> 10 µM
CC1c2nnc(-c3ccc(C(F)(F)F)cc3)n2CCN1C(=O)c1cccc(C(F)(F)F)c1Cl (stereo not drawn) [Example 35, (2-chloro-3-(trifluoromethyl)phenyl)(8-methyl-3-(4-(trifluoromethyl)phenyl)-5,6-dihydro-[1,2,4]triazolo[4,3-a]pyrazin-7(8H)-yl)methanone]	> 10 µM	> 10 µM
C[C@H]1Cn2c(nnc2-c2ccccc2F)CN1C(=O)c1cccc(C(F)(F)F)c1Cl [Example 39, (S)-(2-chloro-3-(trifluoromethyl)phenyl)(3-(2-fluorophenyl)-6-methyl-5,6-dihydro-[1,2,4]triazolo[4,3-a]pyrazin-7(8H)-yl)methanone]	2.43 µM	9.44 µM
C[C@H]1Cn2c(nnc2-c2ccccc2F)CN1C(=O)c1ccc(F)c(Cl)c1Cl [Example 40, (S)-(2,3-dichloro-4-fluorophenyl)(3-(2-fluorophenyl)-6-methyl-5,6-dihydro-[1,2,4]triazolo[4,3-a]pyrazin-7(8H)-yl)methanone]	9.04 µM	14.8 µM
C[C@H]1Cn2c(nnc2-c2cccc(F)c2)CN1C(=O)c1cccc(Cl)c1Cl [Example 41, (S)-(2,3-dichlorophenyl)(3-(3-fluorophenyl)-6-methyl-5,6-dihydro-[1,2,4]triazolo[4,3-a]pyrazin-7(8H)-yl)methanone]	> 10 µM	10.7 µM
C[C@H]1Cn2c(nnc2-c2cccc(F)c2F)CN1C(=O)c1cccc(Cl)c1Cl [Example 44, (S)-(2,3-dichlorophenyl)(3-(2,3-difluorophenyl)-6-methyl-5,6-dihydro-[1,2,4]triazolo[4,3-a]pyrazin-7(8H)-yl)methanone]	3.92 µM	1.46 µM
C[C@H]1Cn2c(nnc2-c2cccc(F)c2F)CN1C(=O)c1cccc(C(F)(F)F)c1Cl [Example 45, (S)-(2-chloro-3-(trifluoromethyl)phenyl)(3-(2,3-difluorophenyl)-6-methyl-5,6-dihydro-[1,2,4]triazolo[4,3-a]pyrazin-7(8H)-yl)methanone]	1.82 µM	0.408 µM
C[C@H]1Cn2c(nnc2-c2cccc(F)c2F)CN1C(=O)c1ccc(F)c(Cl)c1Cl [Example 46, (S)-(2,3-dichloro-4-fluorophenyl)(3-(2,3-difluorophenyl)-6-methyl-5,6-dihydro-[1,2,4]triazolo[4,3-a]pyrazin-7(8H)-yl)methanone]	2.54 µM	2.42 µM
C[C@H]1Cn2c(nnc2-c2ccc(F)c(F)c2)CN1C(=O)c1cccc(Cl)c1Cl [Example 47, (S)-(2,3-dichlorophenyl)(3-(3,4-difluorophenyl)-6-methyl-5,6-dihydro-[1,2,4]triazolo[4,3-a]pyrazin-7(8H)-yl)methanone]	10.4 µM	1.61 µM
C[C@H]1Cn2c(nnc2-c2ccc(F)c(F)c2)CN1C(=O)c1cccc(C(F)(F)F)c1Cl [Example 48, (S)-(2-chloro-3-(trifluoromethyl)phenyl)(3-(3,4-difluorophenyl)-6-methyl-5,6-dihydro-[1,2,4]triazolo[4,3-a]pyrazin-7(8H)-yl)methanone]	1.66 µM	0.637 µM
C[C@H]1Cn2c(nnc2-c2ccc(F)c(F)c2)CN1C(=O)c1ccc(F)c(Cl)c1Cl [Example 49, (S)-(2,3-dichloro-4-fluorophenyl)(3-(3,4-difluorophenyl)-6-methyl-5,6-dihydro-[1,2,4]triazolo[4,3-a]pyrazin-7(8H)-yl)methanone]	4.11 µM	2.73 µM
C[C@H]1Cn2c(nnc2-c2ccc(F)cc2F)CN1C(=O)c1cccc(C(F)(F)F)c1Cl [Example 51, (S)-(2-chloro-3-(trifluoromethyl)phenyl)(3-(2,4-difluorophenyl)-6-methyl-5,6-dihydro-[1,2,4]triazolo[4,3-a]pyrazin-7(8H)-yl)methanone]	1.93 µM	0.578 µM
C[C@H]1Cn2c(nnc2-c2ccc(F)cc2F)CN1C(=O)c1ccc(F)c(Cl)c1Cl [Example 52, (S)-(2,3-dichloro-4-fluorophenyl)(3-(2,4-difluorophenyl)-6-methyl-5,6-dihydro-[1,2,4]triazolo[4,3-a]pyrazin-7(8H)-yl)methanone]	7.05 µM	2.09 µM
CC1c2nnc(C3CCCCC3)n2CCN1C(=O)c1cccc(C(F)(F)F)c1Cl (stereo not drawn) [Example 61, (2-chloro-3-(trifluoromethyl)phenyl)(3-cyclohexyl-8-methyl-5,6-dihydro-[1,2,4]triazolo[4,3-a]pyrazin-7(8H)-yl)methanone]	0.34 µM	> 10 µM
CC1c2nnc(C3CC3)n2CCN1C(=O)c1cccc(C(F)(F)F)c1Cl (stereo not drawn) [Example 65, (2-chloro-3-(trifluoromethyl)phenyl)(3-cyclopropyl-8-methyl-5,6-dihydro-[1,2,4]triazolo[4,3-a]pyrazin-7(8H)-yl)methanone]	> 10 µM	> 10 µM
